Measurements published in patent publication US10537541B2, “Treatment of focal segmental glomerular sclerosis (FSGS) using therapeutically effective oral doses of 10-nitro-9(E)-octadec-9-enoic acid” (Complexa, Inc., priority 2015, dated 2020).
Where two headings read alike, the source gives them in different places.

Legend:
[1] = Multiple ascending dose study in obese males: pharmacokinetics; format: in vivo, human; details: for plasma concentration Day 21 / plasma concentration Day 28: after 14 days dosing; for Tmax: male, human, plasma, oral, 450 mg, read-out: Median Tmax
Excerpt: The primary endpoints of this study included safety and tolerability, pharmacokinetics, and biomarkers. The safety and tolerability included physical examinations, adverse event (AE) reporting, vital signs (blood pressure, heart rate, respiratory rate), clinical laboratory values (hematology, biochemistry, and urinalysis) including serum magnesium and creatine phosphokinase (CPK), 12-lead electrocardiograms (ECGs) for safety assessments and QTcF measured on ECGs extracted from cardiac Holter monitoring. The pharmacokinetic measurements included maximum observed plasma drug concentration (Cmax), time to maximum plasma drug concentration (Tmax), terminal phase half-life (t½), area under the plasma drug concentration versus time curve (AUC0-last, AUC0-∞), clearance (CL/F), volume of distribution (Vd/F) and terminal elimination rate constant (λz).
This was a single-center, randomized, double-blind, placebo-controlled study of sequential multiple ascending doses of oral CXA-10 in obese male subjects. Eligible subjects included obese males age 19 to 57 years and BMI 27.0 to 39.5 kg/m^2. CXA-10 and placebo were provided as solutions in hard shell capsules. Three (3) cohorts of subjects were dosed once daily with CXA-10 for 14 days. The doses administered in this study were 25, 150 and 450 mg. Subjects enrolled in the highest dose level (450 mg) were administered 600 mg on day 1 then 450 mg for 13 days. This cohort (cohort 3) was given the option to receive an additional 450 mg dose on day 15 with a high fat (50%) breakfast.
Subjects remained at the unit until discharge on Day 15 after assessments were completed and reviewed. […] They remained in the unit until Day 16 (24 h after last dose on Day 15) before being discharged from the unit. The additional procedures on Day 15 and Day 16 were optional for subjects in cohort 3.
Full PK profiles were obtained on Days 1 and 14. For subjects in cohort 3 who participate in the additional procedures on Day 15, full PK profiles were obtained on Days 1, 14, and 15. An abbreviated PK profile could also be obtained for the highest dose cohort only on one additional day. The actual day of PK sampling coincided with the additional day of Holter monitoring for the highest dose cohort. Subjects returned on Day 21 and Day 28 for PK, safety, and biomarker assessments.

[2] = system: db/db model; details: given by infusion; cited from earlier work
[3] = system: deoxycorticosterone acetate (DOCA)/salt-induced model of FSGS; assay: DOCA salt study: RT-PCR analysis of kidney gene expression; format: in vivo, mice (129/sv strain); details: DOCA/salt mice kidney; for Nephrin gene expression / Podocin gene expression: normalized to 18S, fold changes to control group, mean ± SEM; for gene expression of MCP-1, osteopontin, collagen III, fibronectin and PAI-1 (mRNA, qRT-PCR): 4 weeks
Description: (§1) Induction of model: Male mice (129/sv strain) were purchased from Taconic Labs. The animals were uninephrectomized (Unx) at 6 weeks of age by the vendor and shipped one week after surgery. At 2 weeks post Unx, a DOCA or placebo pellet (21-day release pellets, 50 mg/pellet, Innovative Research of America, Sarasota, Fla.) was implanted s.c. All mice were then placed on a semisynthetic diet which contained a moderate fat content and a low phytoestrogen/anti-oxidant level, which approximates a normal human diet (4). A second DOCA or placebo pellet was implanted three weeks later.
(§2) Treatment: Mice were treated with placebo, 10-nitro-9(E)-octadec-9-enoic acid at a dose of 2.5 and 12.5 mg/kg, or enalapril (standard of care) for 4 weeks by oral gavage starting 2 weeks after the first DOCA implantation. One percent NaCl in tap water was given to each group except the sham control group. Body weight was measured weekly, and doses were readjusted based on the current body weight. Urine and blood samples were collected prior to treatment and at week 2 and 4 of treatment. Mice were terminated at week 4. Data is presented as the mean+SEM for the number of animals listed in each group.
RT-PCR Analysis of Gene Expression: A slice of kidney from each mouse was placed in Trizol solution (Invitrogen) immediately after harvesting and stored at −80° C. until analysis. Tissues were homogenized using a bead mill in 0.5 ml of Trizol solution and total RNA was extracted with chloroform (Sigma) and purified using standard RNeasy mini kit (Qiagen), with on column DNase 1 (Qiagen) digestion to avoid non-specific fluorescence emission derived from the recognition of contaminating genomic DNA by the probe, according to manufacturer's recommendation. RNA samples were eluted in 30 μl of nuclease-free water and quantified using a Nanodrop. cDNA was generated from 2 μg of RNA by using Clontech Sprint PowerScript reagents according to manufacturer's protocol. Fluorogenic probes specific for genes assayed in the report were purchased from Applied Biosystems. PCR amplification and analysis of PCR reaction were performed and monitored using an ABI Prism 7900HT Sequence Detection System (TaqMan, Perkin-Elmer Applied Biosystem). Data analysis was carried out by using the Sequence Detection Systems v2.3 program (Applied Biosystems). For each cDNA sample the Ct value of each target sequence was normalized to reference gene (Ribosomal RNA-18S), and shown as fold changes to control group. Statistical analyses for gene expression data was performed using a two-tailed Student's t-test.

[4] = system: deoxycorticosterone acetate (DOCA)/salt-induced model of FSGS; assay: DOCA salt study: urinary isoprostane and tetranor-PGDM by LC-MS; format: in vivo, mice (129/sv strain); details: DOCA/salt mice
Description: as §1, §2
Isoprostanes are a unique series of prostaglandin-like compounds formed in vivo via a non-enzymatic mechanism involving the free radical-initiated peroxidation of arachidonic acid. It has been shown that 8-iso-PGF2a (15-F2t-isoprostane) is the isoprostane that correlates best with increasing oxidative stress. Therefore, to assess the effect of treatment on oxidative stress, this isoform was measured using LC-MS. Also measured was tetranor-PGDM, a urinary metabolite of prostaglandin D2. […] On the other hand, elevated tetranor-PGDM was lowered with treatment of 10-nitro-9(E)-octadec-9-enoic acid and enalapril at the end time point (FIG. 18).

[5] = cohort 3, day 15 with high fat (50%) breakfast versus fasted

CCCCCCCC/C(=C\CCCCCCCC(=O)O)[N+](=O)[O-] [CXA-10, 10-nitro-9(E)-octadec-9-enoic acid]
plasma concentration Day 21 ([1]; 25 mg cohort): 0.17 ng/mL | plasma concentration Day 28 ([1]; 25 mg cohort): 0 ng/mL | plasma concentration Day 21 ([1]; 150 mg cohort): 0.33 ng/mL | plasma concentration Day 28 ([1]; 150 mg cohort): (0.39 ng/mL | plasma concentration Day 21 ([1]; 450 mg cohort): 0.38 ng/mL | plasma concentration Day 28 ([1]; 450 mg cohort): 0.30 ng/mL | pharmacokinetics profiles (dose proportionality, accumulation) ([1]; 25, 150, 450 mg once daily, day 1 and day 14): dose proportional concentration-times with minimal accumulation | increase of AUC under fed conditions [1, 5]: about 1.7 fold | increase of Cmax under fed conditions [1, 5]: about 2 fold | Tmax ([1]; fasted conditions): 3 h | Tmax ([1]; fed conditions (high fat breakfast)): 6 h | podocyte number [2]: increase in podocyte number | Nephrin gene expression ([3]; 2.5 mpk): 1.264 ± 0.0789 | Podocin gene expression ([3]; 2.5 mpk): 1.077 ± 0.123 | Nephrin gene expression ([3]; 12.5 mpk): 1.313 ± 0.15 | Podocin gene expression ([3]; 12.5 mpk): 1.117 ± 0.084 | gene expression of MCP-1, osteopontin, collagen III, fibronectin and PAI-1 (mRNA, qRT-PCR) ([3]; high dose 12.5 mg/kg p.o. QD): neither the high dose 10-nitro-9(E)-octadec-9-enoic acid nor enalapril had an effect | gene expression of MCP-1, osteopontin, collagen III, fibronectin and PAI-1 (mRNA, qRT-PCR) ([3]; low dose 2.5 mg/kg p.o. QD): inhibited these genes | urinary tetranor-PGDM ([4]; end time point): lowered | urinary 8-iso-PGF2a, compared with the high dose or enalapril ([4]; low dose 2.5 mg/kg, not statistically significant): trended to have a greater reduction
